Molecules are shown by their SMILES.

As usually defined, the IC50 is the concentration that inhibits the measured activity by half.

Test [1] has as its target T1, LRRK2^KW (Homo sapiens, UniProt Q5S007).
T1 construct: Kinase and WD40 domain construct (KW)
More on the design: Differential scanning fluorometry, thermal stabilization of LRRK2 KW by compound. The note with it: binder. The text has this: Next, we evaluated the potency and selectivity of these new compounds. We performed on-target screening by measuring the thermostability increase of LRRK2^KW in the presence of the new compounds using DSF (Supporting Information Table S2). We also determined the in vitro IC50 (median inhibitory concentration) values for each of the new compounds by purifying LRRK2^RCKW and measuring its kinase activity in the presence of our new inhibitors using the PhosphoSense® activity assay from AssayQuant (Supporting Information Table S2). Finally, we estimated the kinome selectivity of each compound by measuring the thermostability increase of approximately 100 representative kinases in the presence of the compounds via DSF (Supporting Information Table S2). […] Additionally, we screened a library of published type-II inhibitors to identify those that bind to LRRK2^KW (a Kinase and WD40 domain construct of LRRK2) with high affinity.

The target in test [2] is T2, leucine-rich repeat kinase 2 (LRRK2) (Homo sapiens, UniProt Q5S007).
T2 construct: LRRK2^RCKW (ROC, COR, Kinase, WD40)
T2 sequence (Q5S007 1327-2527 limits assumed): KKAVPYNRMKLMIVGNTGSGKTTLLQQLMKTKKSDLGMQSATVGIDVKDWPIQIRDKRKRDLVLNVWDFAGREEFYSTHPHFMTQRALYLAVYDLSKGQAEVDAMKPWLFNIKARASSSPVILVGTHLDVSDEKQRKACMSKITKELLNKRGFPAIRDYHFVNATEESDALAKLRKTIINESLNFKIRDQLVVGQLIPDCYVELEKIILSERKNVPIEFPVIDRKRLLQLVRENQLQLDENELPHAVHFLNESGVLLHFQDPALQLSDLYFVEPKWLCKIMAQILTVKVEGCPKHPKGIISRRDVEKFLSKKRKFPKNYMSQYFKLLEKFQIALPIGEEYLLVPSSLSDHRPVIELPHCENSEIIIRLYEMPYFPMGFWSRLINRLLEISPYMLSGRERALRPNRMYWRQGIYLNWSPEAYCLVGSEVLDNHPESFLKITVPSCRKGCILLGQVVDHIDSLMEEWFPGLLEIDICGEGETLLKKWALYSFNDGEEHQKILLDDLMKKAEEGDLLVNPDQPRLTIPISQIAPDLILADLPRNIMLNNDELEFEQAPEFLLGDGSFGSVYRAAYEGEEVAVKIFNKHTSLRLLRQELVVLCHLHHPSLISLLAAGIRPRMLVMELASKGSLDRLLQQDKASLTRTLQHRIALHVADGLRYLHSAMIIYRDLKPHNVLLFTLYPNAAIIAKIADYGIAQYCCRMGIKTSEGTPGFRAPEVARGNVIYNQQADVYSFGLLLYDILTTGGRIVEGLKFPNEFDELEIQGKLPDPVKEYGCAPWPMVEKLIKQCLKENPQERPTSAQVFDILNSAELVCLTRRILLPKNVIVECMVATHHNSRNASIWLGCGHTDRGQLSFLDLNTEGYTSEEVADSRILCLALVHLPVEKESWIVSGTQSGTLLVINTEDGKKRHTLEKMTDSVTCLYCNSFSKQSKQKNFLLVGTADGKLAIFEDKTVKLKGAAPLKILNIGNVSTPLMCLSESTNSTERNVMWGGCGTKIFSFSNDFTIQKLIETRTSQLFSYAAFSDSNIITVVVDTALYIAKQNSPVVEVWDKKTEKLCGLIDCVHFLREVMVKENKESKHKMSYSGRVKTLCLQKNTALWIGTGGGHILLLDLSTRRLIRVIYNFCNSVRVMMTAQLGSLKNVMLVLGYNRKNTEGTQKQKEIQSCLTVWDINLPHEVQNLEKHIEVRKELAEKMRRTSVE
The test is described as follows: biochemical. The arrangement: PhosphoSense (AssayQuant) kinase activity assay with purified LRRK2 RCKW. An excerpt: (§1) Next, we evaluated the potency and selectivity of these new compounds. We performed on-target screening by measuring the thermostability increase of LRRK2^KW in the presence of the new compounds using DSF (Supporting Information Table S2). We also determined the in vitro IC50 (median inhibitory concentration) values for each of the new compounds by purifying LRRK2^RCKW and measuring its kinase activity in the presence of our new inhibitors using the PhosphoSense® activity assay from AssayQuant (Supporting Information Table S2). Finally, we estimated the kinome selectivity of each compound by measuring the thermostability increase of approximately 100 representative kinases in the presence of the compounds via DSF (Supporting Information Table S2).

Test [3] deals with T2, leucine-rich repeat kinase 2 (LRRK2). The test is described as follows: PhosphoSense kinase activity assay; DSF ΔTm […] K on LRRK2^KW. In kind it is biochemical.
The target is the same in test [4]. The test is described as above. In kind it is biochemical. This is another data set of the same source.
Test [5] has as its target T1, LRRK2^KW. More on the design: DSF thermal shift of purified LRRK2 KW construct with compound. The note with it: binder. An excerpt:
Additionally, we screened a library of published type-II inhibitors to identify those that bind to LRRK2^KW (a Kinase and WD40 domain construct of LRRK2) with high affinity. […] Next, we evaluated the potency and selectivity of these new compounds. We performed on-target screening by measuring the thermostability increase of LRRK2^KW in the presence of the new compounds using DSF (Supporting Information Table S2). We also determined the in vitro IC50 (median inhibitory concentration) values for each of the new compounds by purifying LRRK2^RCKW and measuring its kinase activity in the presence of our new inhibitors using the PhosphoSense® activity assay from AssayQuant (Supporting Information Table S2). Finally, we estimated the kinome selectivity of each compound by measuring the thermostability increase of approximately 100 representative kinases in the presence of the compounds via DSF (Supporting Information Table S2).

The target in test [6] is T2, leucine-rich repeat kinase 2 (LRRK2). The test is described as follows: biochemical. More on the design: PhosphoSense kinase activity assay, purified LRRK2 RCKW.
Text: as §1

T1 sequence (Q5S007 whole entry, the tested form may be a part): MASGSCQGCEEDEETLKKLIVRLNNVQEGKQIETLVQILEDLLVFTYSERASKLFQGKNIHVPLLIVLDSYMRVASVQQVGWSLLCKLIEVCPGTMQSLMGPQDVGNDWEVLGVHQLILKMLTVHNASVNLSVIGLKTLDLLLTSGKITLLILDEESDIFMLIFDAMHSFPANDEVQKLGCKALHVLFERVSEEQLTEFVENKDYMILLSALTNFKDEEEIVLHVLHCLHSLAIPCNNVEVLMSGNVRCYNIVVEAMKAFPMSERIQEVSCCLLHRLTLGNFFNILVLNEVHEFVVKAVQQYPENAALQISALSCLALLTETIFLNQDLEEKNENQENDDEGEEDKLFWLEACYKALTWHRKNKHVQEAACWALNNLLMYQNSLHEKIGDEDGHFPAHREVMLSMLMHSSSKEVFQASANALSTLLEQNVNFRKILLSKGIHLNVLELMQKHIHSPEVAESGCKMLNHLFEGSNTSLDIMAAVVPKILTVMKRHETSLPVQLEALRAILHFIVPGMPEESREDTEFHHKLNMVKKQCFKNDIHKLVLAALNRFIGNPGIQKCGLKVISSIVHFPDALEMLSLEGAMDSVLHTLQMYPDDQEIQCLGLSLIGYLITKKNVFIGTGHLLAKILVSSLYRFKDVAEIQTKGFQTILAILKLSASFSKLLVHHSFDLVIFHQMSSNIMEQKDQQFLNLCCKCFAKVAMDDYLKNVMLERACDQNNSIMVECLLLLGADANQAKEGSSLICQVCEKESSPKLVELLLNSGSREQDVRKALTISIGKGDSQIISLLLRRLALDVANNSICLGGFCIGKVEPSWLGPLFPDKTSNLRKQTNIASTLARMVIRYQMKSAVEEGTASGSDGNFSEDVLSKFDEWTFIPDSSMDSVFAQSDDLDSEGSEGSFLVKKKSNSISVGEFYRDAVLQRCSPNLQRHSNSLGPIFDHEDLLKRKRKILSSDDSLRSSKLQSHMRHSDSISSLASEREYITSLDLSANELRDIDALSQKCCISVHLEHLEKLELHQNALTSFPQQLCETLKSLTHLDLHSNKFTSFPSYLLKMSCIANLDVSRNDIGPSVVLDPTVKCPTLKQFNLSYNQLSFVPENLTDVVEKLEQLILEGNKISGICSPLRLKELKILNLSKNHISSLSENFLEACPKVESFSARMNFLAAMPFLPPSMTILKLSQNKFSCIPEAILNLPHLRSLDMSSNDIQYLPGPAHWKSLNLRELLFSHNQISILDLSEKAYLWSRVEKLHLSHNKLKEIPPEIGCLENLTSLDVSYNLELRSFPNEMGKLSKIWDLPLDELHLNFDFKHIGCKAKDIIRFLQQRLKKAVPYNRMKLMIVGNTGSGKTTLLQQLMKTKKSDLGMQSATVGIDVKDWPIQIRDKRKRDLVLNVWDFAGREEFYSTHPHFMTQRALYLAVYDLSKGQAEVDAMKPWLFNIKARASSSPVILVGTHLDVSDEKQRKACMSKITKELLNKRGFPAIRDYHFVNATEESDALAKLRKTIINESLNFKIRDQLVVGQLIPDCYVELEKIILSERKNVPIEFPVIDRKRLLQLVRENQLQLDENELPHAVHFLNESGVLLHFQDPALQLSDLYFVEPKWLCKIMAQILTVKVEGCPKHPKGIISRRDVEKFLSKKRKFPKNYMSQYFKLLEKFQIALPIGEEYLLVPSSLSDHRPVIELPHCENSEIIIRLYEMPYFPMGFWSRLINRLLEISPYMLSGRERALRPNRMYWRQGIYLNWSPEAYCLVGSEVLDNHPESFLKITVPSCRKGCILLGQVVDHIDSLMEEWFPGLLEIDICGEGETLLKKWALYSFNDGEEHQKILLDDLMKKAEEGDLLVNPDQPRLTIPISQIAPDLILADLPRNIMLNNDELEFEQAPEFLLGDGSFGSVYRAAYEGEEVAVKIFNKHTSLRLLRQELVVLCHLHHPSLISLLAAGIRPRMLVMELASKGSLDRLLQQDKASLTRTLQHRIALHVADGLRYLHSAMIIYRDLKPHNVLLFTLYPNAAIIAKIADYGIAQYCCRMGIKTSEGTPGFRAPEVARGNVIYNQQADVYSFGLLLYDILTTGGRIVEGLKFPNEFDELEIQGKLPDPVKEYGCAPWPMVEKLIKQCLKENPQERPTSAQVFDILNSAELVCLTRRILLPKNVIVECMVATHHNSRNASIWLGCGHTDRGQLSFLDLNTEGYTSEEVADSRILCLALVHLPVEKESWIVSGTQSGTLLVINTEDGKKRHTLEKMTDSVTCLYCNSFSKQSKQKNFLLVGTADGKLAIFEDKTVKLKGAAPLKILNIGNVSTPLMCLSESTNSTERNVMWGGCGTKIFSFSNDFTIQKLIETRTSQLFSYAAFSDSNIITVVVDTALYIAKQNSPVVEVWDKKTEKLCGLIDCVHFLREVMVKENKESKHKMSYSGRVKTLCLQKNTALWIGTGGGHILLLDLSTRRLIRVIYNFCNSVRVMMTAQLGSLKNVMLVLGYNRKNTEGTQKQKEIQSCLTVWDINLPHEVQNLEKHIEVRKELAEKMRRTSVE

For the compound `CN1CCc2cc(N(C(=O)C3(C(N)=O)CC3)c3cccc(-c4c[nH]c5ncnc(N6CCOCC6)c45)c3)ccc2C1` [compound 10, N-(2-methyl-1,2,3,4-tetrahydroisoquinolin-6-yl)-N-(3-(4-morpholino-7H-pyrrolo[2,3-d]pyrimidin-5-yl)phenyl)cyclopropane-1,1-dicarboxamide], the “ΔTm [K]” value at LRRK2^KW [1] is given as 4.3 K. The IC50 in test [2] is 3180 ± 134 nM.
As for `NC(=O)C1(C(=O)N(c2cccc(-c3c[nH]c4ncnc(N5CCOCC5)c34)c2)c2cccc3c2CCC3)CC1` [compound 11, N-(2,3-dihydro-1H-inden-4-yl)-N-(3-(4-morpholino-7H-pyrrolo[2,3-d]pyrimidin-5-yl)phenyl)cyclopropane-1,1-dicarboxamide], the “ΔTm [K]” value on LRRK2^KW [1] was 9.2 K. Further, the IC50 in test [2] is 989 ± 32 nM.
In test [3], `Cc1cc(N(C(=O)C2(C(N)=O)CC2)c2cccc(-c3c[nH]c4ncnc(N5CCOCC5)c34)c2)ccc1F` [compound 20, 20] registered an IC50 of 110 ± 11 nM.
In test [4], `NC(=O)C1(C(=O)N(c2cccc(-c3c[nH]c4ncnc(N5CCOCC5)c34)c2)c2ccc(F)c(Br)c2F)CC1` [compound 26, RN222] gave an IC50 of 134 ± 5 nM.
In the case of `COc1cc(S(C)(=O)=O)ccc1Nc1nc(N(C)C)c2c(-c3cccc(NC(=O)Nc4cc(C(C)(C)C)nn4-c4ccc5ncccc5c4)c3)c[nH]c2n1` [compound 37, 1-(3-(tert-butyl)-1-(quinolin-6-yl)-1H-pyrazol-5-yl)-3-(3-(4-(dimethylamino)-2-((2-methoxy-4-(methylsulfonyl)phenyl)amino)-7H-pyrrolo[2,3-d]pyrimidin-5-yl)phenyl)urea], the “ΔTm [K]” value at LRRK2^KW [1] turned out to be 1.5 K.
Turning to `Cc1ccc(C(=O)Nc2ccc(CN3CCN(C)CC3)c(C(F)(F)F)c2)cc1C#Cc1ccc2cn[nH]c2c1` [compound 52, 3-((1H-indazol-6-yl)ethynyl)-4-methyl-N-(4-((4-methylpiperazin-1-yl)methyl)-3-(trifluoromethyl)phenyl)benzamide], on LRRK2^KW [5], the “∆Tm [K]” value was determined as 10.0 K. Also, in test [6] (read-out: IC50), the IC50 came out at 897 ± 120 nM.
As to `CC(C)(C)c1cc(NC(=O)Nc2ccc3cn[nH]c3c2)n(-c2ccc3ncccc3c2)n1` [compound 53, 1-(3-(tert-butyl)-1-(quinolin-6-yl)-1H-pyrazol-5-yl)-3-(1H-indazol-6-yl)urea], the “∆Tm [K]” value at LRRK2^KW [5] is 2.0 K. In addition, the IC50 in test [6] (read-out: IC50 [nM]) was above 15000 nM.
For `Cc1ccc(-n2nc(C(C)(C)C)cc2NC(=O)Nc2ccc3cn[nH]c3c2)cc1` [compound 54, 1-(3-(tert-butyl)-1-(p-tolyl)-1H-pyrazol-5-yl)-3-(1H-indazol-6-yl)urea], on LRRK2^KW [5], the “∆Tm [K]” value amounted to 2.0 K. For the same compound, the 50% inhibitory concentration (IC50) in test [6] (read-out: IC50 [nM]) is above 15000 nM.

These data come from article doi:10.1101/2024.09.17.613365, “Type-II kinase inhibitors that target Parkinson’s Disease-associated LRRK2” (bioRxiv, 2025).
